In the assay the target is Vesicular glutamate transporter 1 (Rattus norvegicus) (UniProt Q62634). The assay can be described thus: Compound was evaluated for the binding affinity against glutamate vesicular transport (GVT).
Sequence of Vesicular glutamate transporter 1 (Rattus norvegicus) (Q62634 whole entry, looked up): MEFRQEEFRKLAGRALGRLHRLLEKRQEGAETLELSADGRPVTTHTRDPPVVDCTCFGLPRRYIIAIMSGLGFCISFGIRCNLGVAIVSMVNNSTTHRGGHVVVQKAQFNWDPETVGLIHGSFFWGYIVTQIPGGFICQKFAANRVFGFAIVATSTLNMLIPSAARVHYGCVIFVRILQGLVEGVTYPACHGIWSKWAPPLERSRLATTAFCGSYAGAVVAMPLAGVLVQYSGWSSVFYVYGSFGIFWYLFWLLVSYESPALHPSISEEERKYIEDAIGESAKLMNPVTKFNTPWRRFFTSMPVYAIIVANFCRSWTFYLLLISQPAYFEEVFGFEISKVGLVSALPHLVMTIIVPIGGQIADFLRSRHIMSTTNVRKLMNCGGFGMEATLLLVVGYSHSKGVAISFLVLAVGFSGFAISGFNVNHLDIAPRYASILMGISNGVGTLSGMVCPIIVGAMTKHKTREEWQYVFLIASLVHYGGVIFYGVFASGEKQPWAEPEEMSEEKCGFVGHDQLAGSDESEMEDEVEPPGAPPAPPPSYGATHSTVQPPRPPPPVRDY

A word on the Ki: it is the dissociation constant of the complex between target and ligand, obtained from inhibition or displacement. A low value points to higher affinity. In turn, `O=C(O)c1cc(C(=O)O)c2cc(OCc3ccccc3)ccc2n1` [6-Benzyloxy-quinoline-2,4-dicarboxylic acid] gave a Ki of 204 µM.
